In publication PMC8621208, “Antiseptic 9-Meric Peptide with Potency against Carbapenem-Resistant Acinetobacter baumannii Infection” (International Journal of Molecular Sciences, 2021):
Converted amounts (≈) assume the structure as drawn. Where two headings read alike, the source gives them in different places.

Key:
[1] = tested on: CRKP K2; experiment: MIC, broth dilution; format: cell-based, carbapenem-resistant K. pneumoniae; details: read-out: Minimal Inhibitory Concentration (MIC)
Text: (§1) Escherichia coli KCTC 1682 was obtained from the Korean Collection for Type Cultures (KCTC) (Jeongeup-si, Korea), Acinetobacter baumannii KCCM 40203, Pseudomonas aeruginosa KCCM 11328 from the Korea Culture Center of Microorganisms (KCCM) (Seoul, Korea). Klebsiella pneumoniae NCCP 16054 were obtained from the National Culture Collection for Pathogens (NCCP) (Osong, Korea). Additionally, two carbapenem-resistant E. coli (CREC E1 and E2), 11 carbapenem-resistant A. baumannii (CRAB C0–C10) and two carbapenem-resistant K. pneumoniae (CRKP K1 and K2) were isolated from the patients, who presented symptoms and signs of infection at Korea University Anam Hospital (Seoul, Korea) (IRB registration no. 2020AN0157, 4 March 2021). CRAB C0–C10 have the OXA-23 gene with carbapenem-resistance.
(§2) The minimum inhibitory concentrations (MIC) were determined using broth dilution method. Briefly, all the mentioned bacterial strains were grown overnight at 37 °C by Muller–Hinton (MH) media. […] After 16 h incubation, the bacterial growth was read at 600 nm using a SpectraMAX microplate reader (Molecular Devices, San Jose, CA, USA).

[2] = tested on: CRKP K1; experiment: MIC, broth dilution; format: cell-based, carbapenem-resistant K. pneumoniae; details: read-out: Minimal Inhibitory Concentration (MIC)
Text: as §1, §2

[3] = tested on: P. aeruginosa; experiment: MIC, broth dilution; format: cell-based, Pseudomonas aeruginosa KCCM 11328; details: Pseudomonas aeruginosa, 16 h, MH media, read-out: Minimal Inhibitory Concentration (MIC)
Text: as §1, §2

[4] = tested on: A. baumannii; experiment: MIC, broth dilution; format: cell-based, Acinetobacter baumannii KCCM 40203; details: 16 h, MH media, read-out: Minimal Inhibitory Concentration (MIC)
Text: as §1, §2

[5] = tested on: CRAB C0; experiment: Biofilm assay, crystal violet staining; format: cell-based, carbapenem-resistant A. baumannii; details: 16 h
Experimental: Figure 4 Pro9-3 and its analogs have biofilm inhibition properties against CRAB. The antibiofilm activities of peptides (0–32 μM, 16 h) on (A) A. baumannii and (B) CRAB C0 strains were measured by crystal violet staining and the number of attached cells were read at 595 nm. Melittin, meropenem and imipenem were used as a control. Data are shown as the mean ± SEM (n = 3) and are statistically significant at * p < 0.05; *** p < 0.001; ns, not significant (two-way analysis of variance (ANOVA) with Dunnett’s comparison test).
The effects of peptides on biofilm inhibition of A. baumannii and CRAB C0 strains were performed as described previously. […] After treatment, bacterial cells were fixed with methanol (100%, 15 min) followed by crystal violet staining (0.1% (w/v) in 0.25% (v/v) acetic acid for 1 h). The plates were washed with distilled H2O, allowed to dry, and dissolved in ethanol (100% v/v). The color development representing the degree of biofilm was measured at 595 nm.

[6] = tested on: CREC E2; experiment: MIC, broth dilution; format: cell-based, carbapenem-resistant E. coli; details: read-out: Minimal Inhibitory Concentration (MIC)
Text: as §1, §2

[7] = tested on: CREC E1; experiment: MIC, broth dilution; format: cell-based, carbapenem-resistant E. coli; details: read-out: Minimal Inhibitory Concentration (MIC)
Text: as §1, §2

[8] = tested on: K. pneumoniae; experiment: microbe, parasite or virus in culture; details: 16 h; for MIC: Klebsiella pneumoniae, read-out: Minimal Inhibitory Concentration (MIC)
Text: as §1, §2

[9] = tested on: CRAB C1; experiment: microbe, parasite or virus in culture; details: for MIC: Acinetobacter baumannii, read-out: Minimal Inhibitory Concentration (MIC)
Text: as §1, §2

[10] = tested on: CRAB C8; experiment: microbe, parasite or virus in culture; details: for MIC: Acinetobacter baumannii, read-out: Minimal Inhibitory Concentration (MIC)
Text: as §1, §2

[11] = tested on: standard Gram-negative bacteria and carbapenem-resistant Gram-negative bacteria; experiment: Mean MIC over all bacterial strains (GM) and selective index; format: cell-based; details: read-out: GM (geometric mean of MIC values of all bacterial strains)
Experimental: as §2

[12] = tested on: CRAB C7; experiment: MIC, broth dilution; format: cell-based, carbapenem-resistant A. baumannii; details: read-out: Minimal Inhibitory Concentration (MIC)
Text: as §1, §2

[13] = tested on: CRAB C4; experiment: MIC, broth dilution; format: cell-based, carbapenem-resistant A. baumannii; details: read-out: Minimal Inhibitory Concentration (MIC)
Text: as §1, §2

[14] = tested on: CRAB C6; experiment: MIC, broth dilution; format: cell-based, carbapenem-resistant A. baumannii; details: read-out: Minimal Inhibitory Concentration (MIC)
Text: as §1, §2

[15] = tested on: CRAB C10; experiment: MIC, broth dilution; format: cell-based, carbapenem-resistant A. baumannii; details: read-out: Minimal Inhibitory Concentration (MIC)
Text: as §1, §2

[16] = tested on: CRAB C0; experiment: MIC, broth dilution; format: cell-based, carbapenem-resistant A. baumannii; details: read-out: Minimal Inhibitory Concentration (MIC)
Text: as §1, §2

[17] = tested on: CRAB C5; experiment: MIC, broth dilution; format: cell-based, carbapenem-resistant A. baumannii; details: read-out: Minimal Inhibitory Concentration (MIC)
Text: as §1, §2

[18] = tested on: CRAB C9; experiment: MIC, broth dilution; format: cell-based, carbapenem-resistant A. baumannii; details: read-out: Minimal Inhibitory Concentration (MIC)
Text: as §1, §2

[19] = tested on: CRAB C2; experiment: MIC, broth dilution; format: cell-based, carbapenem-resistant A. baumannii; details: read-out: Minimal Inhibitory Concentration (MIC)
Text: as §1, §2

[20] = tested on: CRAB C3; experiment: MIC, broth dilution; format: cell-based, carbapenem-resistant A. baumannii; details: read-out: Minimal Inhibitory Concentration (MIC)
Text: as §1, §2

[21] = tested on: E. coli; experiment: MIC, broth dilution; format: cell-based, Escherichia coli KCTC 1682; details: Escherichia coli, 16 h, read-out: Minimal Inhibitory Concentration (MIC)
Text: as §1, §2

[22] = tested on: intact CRAB C0; experiment: Depolarization of intact CRAB C0 (diSC3-5); format: cell-based, carbapenem-resistant A. baumannii; details: 4 μM
Experimental: (§3) The depolarization capacity by peptides were measured by using a membrane potential sensitive dye 3,3′-dipropylthiadicarbocyanine iodide (diSC3-5) as previously described using intact CRAB C0. Briefly, CRAB C0 cells were washed using wash buffer (5 mM HEPES, 20 mM glucose, pH 7.4). The cells were resuspended in dilution buffer (5 mM HEPES, 20 mM glucose, 0.1 M KCl, pH 7.4) and then incubated with diSC3-5 dye (1 h). In parallel, spheroplasts of CRAB C0 cells (contains plasma membrane and peptidoglycans) were prepared by damaging outer membrane using osmotic shock, as described previously. Finally, varying concentrations of peptide treated cells, negative control (cells with dye) and positive control (1% triton X-100) were recorded for change in fluorescence using fluorescent spectrophotometer and expressed as percent depolarization.

[23] = tested on: CRAB C0 spheroplasts; experiment: Cytoplasmic membrane depolarization of CRAB C0 spheroplasts (diSC3-5); format: cell-based, carbapenem-resistant A. baumannii; details: 4 μM
Experimental: as §3

[24] = tested on: LPS; experiment: Limulus amebocyte lysate (LAL) assay, LPS neutralization; format: biochemical; details: 1.6 μM
Experimental: Peptide-mediated LPS neutralization was determined using LAL assay (GenScript, Piscataway, NJ, USA). Briefly, peptides 10 μL each (3.1, 6.3, 12.5, 25, and 50 μM) were allowed to interact with LPS (2 ng/mL) for 10 min at 37 °C. LL-37 was used as a control. A LAL enzyme (10 μL) was added to peptide-LPS complex for 10 min followed by addition of a chromogenic substrate (5 min, 37 °C). The reaction was stopped using color substrates and the absorbance was measured at 545 nm against endotoxin standard. The endotoxin levels are expressed as endotoxin units (EU) per milliliter.

[25] = tested on: LPS (E. coli O111:B4); experiment: Peptide-LPS binding, BODIPY-TR-cadaverine displacement assay; details: 4 μM
Experimental: The binding abilities of the peptides with LPS was analyzed by BODIPY-TR cadaverine (BC, Thermo Fisher Scientific, Waltham, MA, USA)-displacement assay. The probe complex was prepared by mix 5 μg/mL BC with 5 μg/mL LPS (E. coli O111:B4, Sigma-Aldrich, St. Louis, MO, USA) in a 50 mM Tris buffer (pH 7.4) at room temperature for 6 h. Peptides including polymyxin B (PMB) control (1–64 μM) were allowed to interact with LPS–BC mix in a black 96-well plate for 30 min. The relative fluorescence intensity was recorded at an excitation wavelength of 580 nm and emission wavelength of 620 nm using a fluorescence microplate reader (Molecular Devices, San Jose, CA, USA).

Row | Molecule | MIC ([1]; Klebsiella pneumoniae) [µM] | MIC ([2]; Klebsiella pneumoniae) [µM] | MIC [3] [µM] | MIC ([4]; Acinetobacter baumannii) [µM] | Biofilm inhibition of CRAB C0 [5] | MIC ([6]; Escherichia coli) [µM] | MIC ([7]; Escherichia coli) [µM] | MIC [8] [µM] | MIC [9] [µM] | MIC [10] [µM] | MIC [11] [µM] | MIC ([12]; Acinetobacter baumannii) [µM] | MIC ([13]; Acinetobacter baumannii) [µM] | MIC ([14]; Acinetobacter baumannii) [µM] | MIC ([15]; Acinetobacter baumannii) [µM] | MIC ([16]; Acinetobacter baumannii) [µM] | MIC ([17]; Acinetobacter baumannii) [µM] | MIC ([18]; Acinetobacter baumannii) [µM] | MIC ([19]; Acinetobacter baumannii) [µM] | MIC ([20]; Acinetobacter baumannii) [µM] | other results
1 | C[C@@H](O)[C@H]1C(=O)N2C(C(=O)O)=C(SCCN=CN)C[C@H]12 [Imipenem, reference compound] | > 128 | 32 (≈ 9.58 µg/mL) | 1 (≈ 0.299 µg/mL) | 1 (≈ 0.299 µg/mL) | unable to inhibit | 16 (≈ 4.79 µg/mL) | > 128 | < 0.25 | > 128 | > 128 | 90.3 (≈ 27 µg/mL) | 128 (≈ 38.3 µg/mL) | 128 (≈ 38.3 µg/mL) | 128 (≈ 38.3 µg/mL) | > 128 | > 128 | 128 (≈ 38.3 µg/mL) | > 128 | > 128 | 128 (≈ 38.3 µg/mL) | MIC [21]: 0.5 µM (≈ 0.15 µg/mL)
2 | CC[C@H](C)[C@H](NC(=O)CN)C(=O)NCC(=O)N[C@@H](C)C(=O)N[C@H](C(=O)N[C@@H](CC(C)C)C(=O)N[C@@H](CCCCN)C(=O)N[C@H](C(=O)N[C@@H](CC(C)C)C(=O)N[C@H](C(=O)N[C@H](C(=O)NCC(=O)N[C@@H](CC(C)C)C(=O)N1CCC[C@H]1C(=O)N[C@@H](C)C(=O)N[C@@H](CC(C)C)C(=O)N[C@H](C(=O)N[C@@H](CO)C(=O)N[C@@H](Cc1c[nH]c2ccccc12)C(=O)N[C@H](C(=O)N[C@@H](CCCCN)C(=O)N[C@@H](CCCNC(=N)N)C(=O)N[C@@H](CCCCN)C(=O)N[C@@H](CCCNC(=N)N)C(=O)N[C@@H](CCC(N)=O)C(=O)N[C@@H](CCC(N)=O)C(N)=O)[C@@H](C)CC)[C@@H](C)CC)[C@@H](C)O)[C@@H](C)O)C(C)C)C(C)C [Melittin, reference compound] |  |  |  |  |  |  |  |  |  |  |  |  |  |  |  |  |  |  |  |  | MIC [1]: 64 µM (≈ 182 µg/mL); MIC [2]: 64 µM (≈ 182 µg/mL); MIC [4]: 4 µM (≈ 11.4 µg/mL); MIC [6]: 8 µM (≈ 22.8 µg/mL); MIC [7]: 8 µM (≈ 22.8 µg/mL); Minimal Inhibitory Concentration (MIC) ([8]; K. pneumoniae, MH media): 32 µM; Minimal Inhibitory Concentration (MIC) ([9]; CRAB C1): 4 µM; Minimal Inhibitory Concentration (MIC) ([10]; CRAB C8): 4 µM; Depolarization of intact CRAB (diSC3-5) [22]: 75.6%; Increase of diSC3-5 fluorescence in CRAB spheroplasts (depolarization) [23]: 67.9%; MIC [12]: 4 µM (≈ 11.4 µg/mL); MIC [13]: 4 µM (≈ 11.4 µg/mL); MIC [14]: 4 µM (≈ 11.4 µg/mL); MIC [15]: 4 µM (≈ 11.4 µg/mL); MIC [16]: 4 µM (≈ 11.4 µg/mL); MIC [17]: 4 µM (≈ 11.4 µg/mL); MIC [18]: 4 µM (≈ 11.4 µg/mL); MIC [19]: 4 µM (≈ 11.4 µg/mL); MIC [20]: 4 µM (≈ 11.4 µg/mL)
3 | C[C@@H](O)[C@H]1C(=O)N2C(C(=O)O)=C(S[C@@H]3CN[C@H](C(=O)N(C)C)C3)[C@H](C)[C@H]12 [Meropenem, reference compound] | > 128 | 64 (≈ 24.5 µg/mL) | 1 (≈ 0.383 µg/mL) | 0.5 (≈ 0.192 µg/mL) | unable to inhibit | 16 (≈ 6.14 µg/mL) | > 128 | < 0.25 | > 128 | > 128 | 91.9 (≈ 35.2 µg/mL) | 128 (≈ 49.1 µg/mL) | > 128 | > 128 | > 128 | 128 (≈ 49.1 µg/mL) | > 128 | > 128 | 128 (≈ 49.1 µg/mL) | 128 (≈ 49.1 µg/mL) | MIC ([21]; E. coli, MH media): 0.25 µM (≈ 0.0959 µg/mL)
4 | LL-37 |  |  |  |  |  |  |  |  |  |  |  |  |  |  |  |  |  |  |  |  | LPS neutralization (LAL assay) [24]: 76.5%
5 | polymyxin B [PMB] |  |  |  |  |  |  |  |  |  |  |  |  |  |  |  |  |  |  |  |  | BC displacement (LPS binding) [25]: 76.6%
